“And” between values parts separate entries of the source, which are not always exact repeats. Equal entries are not always repeated. HELM strings list units from the 5' end as sugar, base in round brackets, then linkage (d deoxyribose, r ribose, m 2'-O-methyl, p phosphodiester). Methylation of C is not given here. [moe] = 2'-O-(2-methoxyethyl) (MOE); [cEt] = constrained ethyl (cEt); [sp] = phosphorothioate linkage
Biological target: HBV
Details: ASO

In the case of “RNA1{[moe](A)[sp].[moe](G)[sp].[moe](T)[sp].d(T)[sp].d(C)[sp].d(C)[sp].d(G)[sp].d(C)[sp].d(A)[sp].d(G)[sp].d(T)[sp].d(A)[sp].d(T)[sp].[cEt](G)[sp].[cEt](G)[sp].[cEt](A)}$$$$V2.0”, the target mRNA inhibition (HepG2, 0.07 µM) is reported as 58% and 69%.

In the case of “RNA1{[moe](A)[sp].[cEt](G)[sp].d(A)[sp].d(T)[sp].d(G)[sp].d(A)[sp].d(G)[sp].d(G)[sp].d(C)[sp].d(A)[sp].d(T)[sp].d(A)[sp].[cEt](G)[sp].[moe](C)[sp].[cEt](A)[sp].[moe](G)}$$$$V2.0”, the target mRNA inhibition (HepG2, 0.07 µM) is reported as 72% and 60%.

In the case of “RNA1{[moe](G)[sp].[moe](A)[sp].[moe](A)[sp].d(C)[sp].d(C)[sp].d(A)[sp].d(C)[sp].d(T)[sp].d(G)[sp].d(A)[sp].d(A)[sp].d(C)[sp].d(A)[sp].[cEt](A)[sp].[cEt](A)[sp].[cEt](T)}$$$$V2.0”, the target mRNA inhibition (HepG2, 0.07 µM) is reported as 30% and 48%.

With “RNA1{[moe](G)[sp].[moe](A)[sp].[moe](G)[sp].[moe](G)[sp].[moe](T)[sp].[moe](G)[sp].d(A)[sp].d(A)[sp].d(G)[sp].d(C)[sp].d(G)[sp].d(A)[sp].d(A)[sp].d(G)[sp].d(T)[sp].[moe](G)[sp].[moe](C)}$$$$V2.0” the target mRNA inhibition (HepG2, 0.07 µM) was 75% and 52%.

With “RNA1{[moe](C)[sp].[cEt](C)[sp].[cEt](A)[sp].d(A)[sp].d(G)[sp].d(G)[sp].d(C)[sp].d(A)[sp].d(C)[sp].d(A)[sp].d(G)[sp].d(C)[sp].d(T)[sp].[cEt](T)[sp].[cEt](G)[sp].[moe](G)}$$$$V2.0” the target mRNA inhibition (HepG2, 0.07 µM) was 1% and 0%.

For “RNA1{[moe](A)[sp].[moe](C)[sp].[moe](T)[sp].d(A)[sp].d(G)[sp].d(T)[sp].d(A)[sp].d(A)[sp].d(A)[sp].d(C)[sp].d(T)[sp].d(G)[sp].[moe](A)[sp].[moe](G)[sp].[moe](C)[sp].[moe](C)[sp].[moe](A)}$$$$V2.0”, the target mRNA inhibition (HepG2, 0.07 µM) was 66% and 67%.

With “RNA1{[moe](A)[sp].[moe](G)[sp].[moe](T)[sp].[moe](T)[sp].d(C)[sp].d(C)[sp].d(G)[sp].d(C)[sp].d(A)[sp].d(G)[sp].d(T)[sp].d(A)[sp].d(T)[sp].[moe](G)[sp].[moe](G)[sp].[moe](A)}$$$$V2.0” the target mRNA inhibition (HepG2, 0.07 µM) was 60% and 39%.

With “RNA1{[moe](G)[sp].[moe](G)[sp].[moe](C)[sp].d(A)[sp].d(T)[sp].d(A)[sp].d(G)[sp].d(C)[sp].d(A)[sp].d(G)[sp].d(C)[sp].d(A)[sp].[moe](G)[sp].[moe](G)[sp].[moe](A)[sp].[moe](T)}$$$$V2.0” the target mRNA inhibition (HepG2, 0.07 µM) was 54% and 57%.

In the case of “RNA1{[cEt](T)[sp].d(T)[sp].[cEt](T)[sp].d(A)[sp].[cEt](T)[sp].d(G)[sp].d(C)[sp].d(C)[sp].d(T)[sp].d(A)[sp].d(C)[sp].d(A)[sp].d(G)[sp].d(C)[sp].[moe](C)[sp].[moe](T)}$$$$V2.0”, the target mRNA inhibition (HepG2, 0.009375 µM) is reported as 12%, the target mRNA inhibition (HepG2, 0.01875 µM) is reported as 14% and the target mRNA inhibition (HepG2, 0.0375 µM) is reported as 32%. For the same substance, the target mRNA inhibition (HepG2, 0.075 µM) was 47%, the target mRNA inhibition (HepG2, 0.15 µM) was 62% and the target mRNA inhibition (HepG2, 0.3 µM) was 77%.

With “RNA1{[moe](T)[sp].[moe](T)[sp].d(C)[sp].d(C)[sp].d(G)[sp].d(C)[sp].d(A)[sp].d(G)[sp].d(T)[sp].d(A)[sp].d(T)[sp].[moe](G)[sp].[moe](G)[sp].[moe](A)[sp].[moe](T)[sp].[moe](C)}$$$$V2.0” the target mRNA inhibition (HepG2, 0.07 µM) was 62% and 50%.

In the case of “RNA1{[moe](C)[sp].[cEt](A)[sp].[cEt](A)[sp].d(A)[sp].d(T)[sp].d(G)[sp].d(G)[sp].d(C)[sp].d(A)[sp].d(C)[sp].d(T)[sp].d(A)[sp].d(G)[sp].[cEt](T)[sp].[cEt](A)[sp].[moe](A)}$$$$V2.0”, the target mRNA inhibition (HepG2, 0.07 µM) is reported as 55% and 64%.

With “RNA1{[moe](G)[sp].[moe](A)[sp].d(G)[sp].d(G)[sp].d(C)[sp].d(A)[sp].d(T)[sp].d(A)[sp].d(G)[sp].d(C)[sp].d(A)[sp].[moe](G)[sp].[moe](C)[sp].[moe](A)[sp].[moe](G)[sp].[moe](G)}$$$$V2.0” the target mRNA inhibition (HepG2, 0.07 µM) was 0%.

With “RNA1{[moe](A)[sp].[cEt](A)[sp].d(G)[sp].d(T)[sp].d(C)[sp].d(C)[sp].d(A)[sp].d(C)[sp].d(C)[sp].d(A)[sp].d(C)[sp].d(G)[sp].[cEt](A)[sp].[moe](G)[sp].[cEt](T)[sp].[moe](C)}$$$$V2.0” the target mRNA inhibition (HepG2, 0.07 µM) was 43% and 40%.

With “RNA1{[moe](G)[sp].[moe](G)[sp].[moe](A)[sp].[moe](G)[sp].[moe](T)[sp].[moe](T)[sp].d(C)[sp].d(C)[sp].d(G)[sp].d(C)[sp].d(A)[sp].d(G)[sp].d(T)[sp].d(A)[sp].d(T)[sp].[moe](G)[sp].[moe](G)}$$$$V2.0” the target mRNA inhibition (HepG2, 0.0092593 µM) was 2%, the target mRNA inhibition (HepG2, 0.0277778 µM) was 25% and the target mRNA inhibition (HepG2, 0.0833333 µM) was 55%. For the same substance, the target mRNA inhibition (HepG2, 0.25 µM) was 74%.

For “RNA1{[moe](C)[sp].[moe](G)[sp].[moe](A)[sp].[moe](A)[sp].[moe](C)[sp].d(C)[sp].d(A)[sp].d(C)[sp].d(T)[sp].d(G)[sp].d(A)[sp].d(A)[sp].d(C)[sp].d(A)[sp].[moe](A)[sp].[moe](A)[sp].[moe](T)}$$$$V2.0”, the target mRNA inhibition (HepG2, 0.07 µM) was 34% and 32%.

In the case of “RNA1{[moe](C)[sp].[moe](G)[sp].[moe](C)[sp].[moe](A)[sp].d(G)[sp].d(T)[sp].d(A)[sp].d(T)[sp].d(G)[sp].d(G)[sp].d(A)[sp].d(T)[sp].d(C)[sp].[moe](G)[sp].[moe](G)[sp].[moe](C)[sp].[moe](A)}$$$$V2.0”, the target mRNA inhibition (HepG2, 0.07 µM) is reported as 81% and 67%.

With “RNA1{[moe](A)[sp].[cEt](A)[sp].[cEt](C)[sp].d(A)[sp].d(A)[sp].d(A)[sp].d(T)[sp].d(G)[sp].d(G)[sp].d(C)[sp].d(A)[sp].d(C)[sp].d(T)[sp].[cEt](A)[sp].[cEt](G)[sp].[moe](T)}$$$$V2.0” the target mRNA inhibition (HepG2, 0.07 µM) was 78% and 76%.

For “RNA1{[moe](G)[sp].[moe](A)[sp].[moe](G)[sp].[moe](T)[sp].[moe](T)[sp].d(C)[sp].d(C)[sp].d(G)[sp].d(C)[sp].d(A)[sp].d(G)[sp].d(T)[sp].d(A)[sp].d(T)[sp].[moe](G)[sp].[moe](G)[sp].[moe](A)}$$$$V2.0”, the target mRNA inhibition (HepG2, 0.07 µM) was 75% and 56%.

In the case of “RNA1{d(C)[sp].d(C)[sp].d(A)[sp].d(A)[sp].d(A)[sp].d(G)[sp].d(C)[sp].d(C)[sp].d(A)[sp].d(C)[sp].d(C)[sp].d(C)[sp].d(A)[sp].d(A)[sp].d(G)[sp].d(G)}$$$$V2.0”, the target mRNA inhibition (HepG2, 0.01875 µM) is reported as 4% and 0%, the target mRNA inhibition (HepG2, 0.0375 µM) is reported as 0% and the target mRNA inhibition (HepG2, 0.075 µM) is reported as 0%. The target mRNA inhibition (HepG2, 0.15 µM) was 3% and 0% and the target mRNA inhibition (HepG2, 0.3 µM) was 13%.

“RNA1{[moe](T)[sp].[moe](G)[sp].[moe](A)[sp].[cEt](G)[sp].d(G)[sp].d(C)[sp].d(A)[sp].d(T)[sp].d(A)[sp].d(G)[sp].d(C)[sp].d(A)[sp].d(G)[sp].[cEt](C)[sp].[moe](A)[sp].[moe](G)[sp].[moe](G)}$$$$V2.0” showed a target mRNA inhibition (HepG2, 0.009375 µM) of 6%, a target mRNA inhibition (HepG2, 0.01875 µM) of 31% and a target mRNA inhibition (HepG2, 0.0375 µM) of 42%. It also gave a target mRNA inhibition (HepG2, 0.075 µM) of 58%, a target mRNA inhibition (HepG2, 0.15 µM) of 66% and a target mRNA inhibition (HepG2, 0.3 µM) of 82%.

In the case of “RNA1{[moe](G)[sp].[cEt](A)[sp].[cEt](A)[sp].d(C)[sp].d(A)[sp].d(A)[sp].d(A)[sp].d(T)[sp].d(G)[sp].d(G)[sp].d(C)[sp].d(A)[sp].d(C)[sp].[cEt](T)[sp].[cEt](A)[sp].[moe](G)}$$$$V2.0”, the target mRNA inhibition (HepG2, 0.07 µM) is reported as 72% and 61%.

In the case of “RNA1{[moe](G)[sp].[moe](C)[sp].[moe](A)[sp].[moe](C)[sp].d(T)[sp].d(A)[sp].d(G)[sp].d(T)[sp].d(A)[sp].d(A)[sp].d(A)[sp].d(C)[sp].d(T)[sp].[moe](G)[sp].[moe](A)[sp].[moe](G)[sp].[moe](C)}$$$$V2.0”, the target mRNA inhibition (HepG2, 0.07 µM) is reported as 55% and 47%.

For “RNA1{[moe](A)[sp].[cEt](A)[sp].[cEt](C)[sp].d(C)[sp].d(A)[sp].d(C)[sp].d(T)[sp].d(G)[sp].d(A)[sp].d(A)[sp].d(C)[sp].d(A)[sp].d(A)[sp].[cEt](A)[sp].[cEt](T)[sp].[moe](G)}$$$$V2.0”, the target mRNA inhibition (HepG2, 0.07 µM) was 64% and 51%.

For “RNA1{[moe](G)[sp].[moe](A)[sp].[moe](T)[sp].[moe](G)[sp].[moe](A)[sp].d(G)[sp].d(G)[sp].d(C)[sp].d(A)[sp].d(T)[sp].d(A)[sp].d(G)[sp].d(C)[sp].d(A)[sp].[moe](G)[sp].[moe](C)}$$$$V2.0”, the target mRNA inhibition (HepG2, 0.07 µM) was 45% and 31%.

With “RNA1{[moe](G)[sp].[cEt](T)[sp].d(T)[sp].d(C)[sp].d(C)[sp].d(G)[sp].d(C)[sp].d(A)[sp].d(G)[sp].d(T)[sp].d(A)[sp].d(T)[sp].[cEt](G)[sp].[moe](G)[sp].[cEt](A)[sp].[moe](T)}$$$$V2.0” the target mRNA inhibition (HepG2, 0.07 µM) was 76% and 53%.

“RNA1{[moe](G)[sp].[moe](A)[sp].d(A)[sp].d(G)[sp].d(T)[sp].d(C)[sp].d(C)[sp].d(A)[sp].d(C)[sp].d(C)[sp].d(A)[sp].[moe](C)[sp].[moe](G)[sp].[moe](A)[sp].[moe](G)[sp].[moe](T)[sp].[moe](C)}$$$$V2.0” was tested, and the target mRNA inhibition (HepG2, 0.07 µM) was 66% and 49%.

With “RNA1{[moe](A)[sp].[moe](A)[sp].[moe](C)[sp].[moe](T)[sp].d(G)[sp].d(G)[sp].d(A)[sp].d(G)[sp].d(C)[sp].d(C)[sp].d(A)[sp].d(C)[sp].d(C)[sp].[moe](A)[sp].[moe](G)[sp].[moe](C)}$$$$V2.0” the target mRNA inhibition (HepG2, 0.07 µM) was 52% and 45%.

With “RNA1{[moe](A)[sp].[moe](A)[sp].[moe](G)[sp].[moe](A)[sp].[moe](T)[sp].d(G)[sp].d(A)[sp].d(G)[sp].d(G)[sp].d(C)[sp].d(A)[sp].d(T)[sp].d(A)[sp].d(G)[sp].[moe](C)[sp].[moe](A)[sp].[moe](G)}$$$$V2.0” the target mRNA inhibition (HepG2, 0.07 µM) was 26% and 34%.

In the case of “RNA1{[moe](A)[sp].[cEt](G)[sp].[cEt](T)[sp].d(C)[sp].d(C)[sp].d(A)[sp].d(C)[sp].d(C)[sp].d(A)[sp].d(C)[sp].d(G)[sp].d(A)[sp].d(G)[sp].[cEt](T)[sp].[cEt](C)[sp].[moe](T)}$$$$V2.0”, the target mRNA inhibition (HepG2, 0.07 µM) is reported as 62% and 45%.

In the case of “RNA1{[moe](G)[sp].[cEt](A)[sp].[cEt](T)[sp].d(G)[sp].d(A)[sp].d(G)[sp].d(G)[sp].d(C)[sp].d(A)[sp].d(T)[sp].d(A)[sp].d(G)[sp].d(C)[sp].[cEt](A)[sp].[cEt](G)[sp].[moe](C)}$$$$V2.0”, the target mRNA inhibition (HepG2, 0.07 µM) is reported as 60% and 59%.

— the OligoGym collection
